Data as given in patent publication US12161689B2, “Anti-infective formulations” (NEW MEXICO TECH UNIVERSITY RESEARCH PARK CORPORATION, priority 2018, dated 2024).
Where a SMILES comes first, the peptide text is derived from it. Bridges are numbered along the chain shown (N, C = ends). [ ]: non-standard residue; d: D form. The star is where a group is joined. Ileψ(thiazoline)Cys = CC[C@H](C)[C@H](N)C1=N[C@H](C(=O)*)CS1; dOrn = NCCC[C@@H](N)C(=O)O

How the values were obtained:
red blood cells = experiment: Hemolysis on blood agar plate; conditions: 5 μL spotted; refrigerated overnight
[1] = test system: Vancomycin-resistant enterococcus (VRE) (ATCC 51299); experiment: Spot on lawn, MHA plate: killing / diameter of clearance; assay type: cell-based; design: key to antibacterial activity: “+” indicates antibacterial activity with complete clearing; “−” indicates no antibacterial activity; conditions: 10 μL spot; for antibacterial activity: 24 to 48 hours at 37° C.
MRSA (ATCC BAA44) = experiment: as above; assay type: cell-based, Staphylococcus aureus; conditions: for antibacterial activity: 24 to 48 hours at 37° C.
[2] = test system: CRE NDM-1 MDR (ATCC BAA 2146); experiment: as above; assay type: cell-based, Enterobacteriaceae; design: key to antibacterial activity: “+” indicates antibacterial activity with complete clearing; “−” indicates no antibacterial activity; conditions: for antibacterial activity: 24 to 48 hours at 37° C.
[3] = test system: multi-drug resistant Acinetobacter baumannii (ATCC 1797); experiment: as above; assay type: cell-based; conditions: 10 μL spot; for antibacterial activity: 24 to 48 hours at 37° C.
[4] = test system: multi-drug resistant Pseudomonas aeruginosa (ATCC 2114); experiment: as above; assay type: cell-based; conditions: 10 μL spot; for antibacterial activity: 24 to 48 hours at 37° C.
[5] = test system: Escherichia coli (O157:H7) (ATCC 51657); experiment: as above; assay type: cell-based; design: key to antibacterial activity: “+” indicates antibacterial activity with complete clearing; “−” indicates no antibacterial activity; conditions: for antibacterial activity: 24 to 48 hours at 37° C.
[6] = test system: Stenotrophomonas maltophilia (ATCC 13637); experiment: as above; assay type: cell-based; design: key: “+” indicates antibacterial activity with complete clearing; “−” indicates no antibacterial activity; conditions: S. maltophilia (ATCC 13637); 10 μL spot; 24 to 48 hours at 37° C.
[7] = test system: Mycobacterium abscessus (ATCC 19977); experiment: as above; assay type: cell-based; design: key: “+” indicates antibacterial activity with complete clearing; “−” indicates no antibacterial activity; conditions: 10 μL spot, 24 to 48 hours at 37° C.
Streptococcus pyogenes = experiment: as above; assay type: cell-based; design: key to antibacterial activity: “+” indicates antibacterial activity with complete clearing; “−” indicates no antibacterial activity; conditions: for antibacterial activity / killing of Streptococcus pyogenes: 10 μL spot; for antibacterial activity: 24 to 48 hours at 37° C.; for killing of Streptococcus pyogenes: incubation period of 1 day; for killing of S. pyogenes: after 7 days of incubation
Yesenia pestis (Kimo 6) = assay type: cell-based, Yersinia pestis; conditions: 10 μL spot; for antibacterial activity: Yersinia pestis KIM6, 24 to 48 hours at 37° C.; for efficacy against Yesenia pestis (Kimo 6), comparison with antibiotics: incubation period of 1 day
[8] = test system: multi-drug-resistant E. coli CDC AR0493; experiment: Spot on lawn, MHA plate: killing; assay type: cell-based; conditions: 10 μL spot, 24 to 48 hours at 37° C.
[9] = test system: multi-drug resistant Burkholderia cepacia (ATCC 10856); experiment: Spot on lawn, MHA plate: killing / diameter of clearance; assay type: cell-based; conditions: for killing of multi-drug resistant Burkholderia cepacia: 10 μL, overnight at 37° C. (FIG. 63); for antibacterial activity: 10 μL spot, 24 to 48 hours at 37° C.
[10] = test system: Bacillus subtilis (ATCC 6633); experiment: as above; assay type: cell-based; conditions: 10 μL spot; incubation period of 1 day
MCR-1 E. coli (AR 0350) = experiment: Spot on lawn, MHA plate: killing; assay type: cell-based; conditions: 10 μL drops; 1 day at 37° C.
From the text: An overnight growth of MCR-1 E. coli (AR 0350) was made in MHB, and was spread undiluted onto a MHA plate.

[11] = test system: multi-drug resistant E. coli (AR 0348); experiment: Spot on lawn, MHA plate: killing; assay type: cell-based; conditions: 10 μL; 1 day at 37° C.
Description: An overnight growth of multi-drug resistant E. coli (AR 0348) was made in MHB. The samples were diluted 1:1000, and spread onto a MHA plate.

[12] = test system: multi-drug resistant E. coli (AR 0346); experiment: Spot on lawn, MHA plate: killing; assay type: cell-based; conditions: 10 μL; 3 days at 37° C.
Description: An overnight growth of multi-drug resistant E. coli (AR 0346) was made in MHB. The samples were diluted 1:1000, and spread onto a MHA plate.

[13] = test system: Shigella flexneri 85W 2332; experiment: Spot on lawn, MHA plate: killing; assay type: cell-based; conditions: 10 μL spot, 24 to 48 hours at 37° C.
[14] = test system: Salmonella enteriditis CDC AR0496; experiment: Spot on lawn, MHA plate: killing; assay type: cell-based; conditions: 10 μL spot, 24 to 48 hours at 37° C.
MRSA BAA-1717 (USA 300) = experiment: Spot on lawn, MHA plate: killing / diameter of clearance; conditions: 10 μL; overnight at 37° C. (FIG. 63)
[15] = CRE NDM-1 (MDR) ATCC BAA-2146, 10 μL spot
[16] = CRE NDM-1 MDR (ATCC BAA 2146), 10 μL spot
[17] = E. Coli (O157:H7) (ATCC 51657), 10 μL spot
[18] = Mycobacterium abscessus ATCC19977
[19] = Streptococcus pyogenes 85W 1180
[20] = 10 μL spot, incubation period of 1 day
[21] = Burkholderia cepacia ATCC 10856

O=C(O)c1ccccc1O [2% salicylic acid, salicylic acid]
blood hemolysis (red blood cells): little to no hemolysis

CC[C@H](C)[C@H](N)C1=N[C@H](C(=O)N[C@@H](CC(C)C)C(=O)N[C@H](CCC(=O)O)C(=O)N[C@H](C(=O)N[C@H]2CCCCNC(=O)[C@H](CC(N)=O)NC(=O)[C@@H](CC(=O)O)NC(=O)[C@H](Cc3cnc[nH]3)NC(=O)[C@@H](Cc3ccccc3)NC(=O)[C@H]([C@@H](C)CC)NC(=O)[C@@H](CCCN)NC2=O)[C@@H](C)CC)CS1 [Bacitracin] ({Ileψ(thiazoline)Cys}-L[dE]IK[dOrn]I[dF]H[dD]N; lactam 4-C)
killing of VRE ([1]; incubation period of 1 day): killed | antibacterial activity ([1]; VRE (ATCC 51299)): − | antibacterial activity ([1]; VRE): − | antibacterial activity (MRSA (ATCC BAA44); MRSA (ATCC BAA44), 10 μL spot): − | antibacterial activity (MRSA (ATCC BAA44); MRSA ATCC BAA-44, 10 μL spot): − | antibacterial activity [2, 15]: − | antibacterial activity [2, 16]: − | antibacterial activity ([3]; A. Baumannii MDR (ATCC 1797)): − | antibacterial activity ([3]; A. baumannii MDR ATCC 1797): − | antibacterial activity ([4]; P. aeruginosa MDR (ATCC 2114)): − | antibacterial activity ([4]; P. aeruginosa MDR ATCC 2114): − | antibacterial activity [5, 17]: − | antibacterial activity ([5]; E. coli O157:H7, 10 μL spot): − | antibacterial activity [6]: − | antibacterial activity ([7]; M. abscessus (ATCC 19977)): − | antibacterial activity [7, 18]: − | antibacterial activity (Streptococcus pyogenes; S. pyogenes): − | antibacterial activity (Streptococcus pyogenes; [19]): − | antibacterial activity (Yesenia pestis (Kimo 6)): − | antibacterial activity [8]: −

C/C(=C\C(=O)OCCCCCCCCC(=O)O)C[C@@H]1OC[C@H](C[C@@H]2O[C@H]2[C@@H](C)[C@H](C)O)[C@@H](O)[C@H]1O [Mupirocin]
antibacterial activity ([1]; VRE (ATCC 51299)): − | antibacterial activity ([1]; VRE): − | killing of MRSA (MRSA (ATCC BAA44); 10 μL spot, incubation period of 1 day (FIG. 52)): killed | antibacterial activity (MRSA (ATCC BAA44); MRSA (ATCC BAA44), 10 μL spot): + | antibacterial activity (MRSA (ATCC BAA44); MRSA ATCC BAA-44, 10 μL spot): + | killing of MRSA (MRSA (ATCC BAA44); after 4 days of incubation): only formulations that killed | regrowth of MRSA (MRSA (ATCC BAA44); after 4 days of incubation): not observed | killing of CRE NDM-1 MDR [2, 20]: killed | antibacterial activity [2, 15]: − | antibacterial activity [2, 16]: − | killing of CRE NDM-1 MDR ([2]; after 5 days of incubation): only formulations that killed | regrowth of CRE NDM-1 MDR ([2]; after 5 days of incubation): not observed | killing of A. baumannii ([3]; incubation period of 1 day (FIG. 54)): killed | antibacterial activity ([3]; A. Baumannii MDR (ATCC 1797)): − | antibacterial activity ([3]; A. baumannii MDR ATCC 1797): − | killing of multi-drug resistant Pseudomonas aeruginosa ([4]; incubation period of 1 day (FIG. 55)): killed | antibacterial activity ([4]; P. aeruginosa MDR (ATCC 2114)): + | antibacterial activity ([4]; P. aeruginosa MDR ATCC 2114): + | killing of Escherichia coli (O157:H7) [5, 20]: killed | antibacterial activity [5, 17]: + | antibacterial activity ([5]; E. coli O157:H7, 10 μL spot): + | killing of Escherichia coli (O157:H7) ([5]; after 5 days of incubation): only formulations that killed | regrowth of Escherichia coli (O157:H7) ([5]; after 5 days of incubation): not observed | antibacterial activity [6]: − | antibacterial activity ([7]; M. abscessus (ATCC 19977)): − | antibacterial activity [7, 18]: − | killing of Streptococcus pyogenes (Streptococcus pyogenes): killed | antibacterial activity (Streptococcus pyogenes; S. pyogenes): + | antibacterial activity (Streptococcus pyogenes; [19]): + | killing of S. pyogenes (Streptococcus pyogenes): further killed | killing of multi-drug resistant Burkholderia cepacia [9]: killed | antibacterial activity ([9]; B. cepacia (ATCC 10856)): + | antibacterial activity [9, 21]: + | efficacy against Yesenia pestis (Kimo 6), comparison with antibiotics (Yesenia pestis (Kimo 6)): more effective than MM8 | antibacterial activity (Yesenia pestis (Kimo 6)): + | killing of Bacillus subtilis [10]: killed | killing of MCR-1 E. coli (AR 0350; colisitin-resistance only) (MCR-1 E. coli (AR 0350)): fully killed | killing of multi-drug resistant E. coli (AR 0348) [11]: fully killed | killing of multi-drug resistant E. coli (AR 0346) [12]: fully killed | antibacterial activity [8]: + | antibacterial activity [13]: + | antibacterial activity [14]: + | killing of MRSA BAA-1717 (USA 300) (MRSA BAA-1717 (USA 300)): killed

O=C(OOC(=O)c1ccccc1)c1ccccc1 [benzoyl peroxide]
blood hemolysis (red blood cells): complete hemolysis

Neomycin
antibacterial activity ([1]; VRE (ATCC 51299)): − | antibacterial activity ([1]; VRE): − | antibacterial activity (MRSA (ATCC BAA44); MRSA (ATCC BAA44), 10 μL spot): − | antibacterial activity (MRSA (ATCC BAA44); MRSA ATCC BAA-44, 10 μL spot): − | antibacterial activity [2, 15]: − | antibacterial activity [2, 16]: − | antibacterial activity ([3]; A. Baumannii MDR (ATCC 1797)): − | antibacterial activity ([3]; A. baumannii MDR ATCC 1797): − | antibacterial activity ([4]; P. aeruginosa MDR (ATCC 2114)): − | antibacterial activity ([4]; P. aeruginosa MDR ATCC 2114): − | killing of Escherichia coli (O157:H7) [5, 20]: killed | antibacterial activity [5, 17]: + | antibacterial activity ([5]; E. coli O157:H7, 10 μL spot): + | killing of Escherichia coli (O157:H7) ([5]; after 5 days of incubation): only formulations that killed | regrowth of Escherichia coli (O157:H7) ([5]; after 5 days of incubation): not observed | antibacterial activity [6]: + | antibacterial activity ([7]; M. abscessus (ATCC 19977)): − | antibacterial activity [7, 18]: − | killing of Streptococcus pyogenes (Streptococcus pyogenes): killed | regrowth of Streptococcus pyogenes colonies in treated area (Streptococcus pyogenes; FIG. 59, 7 days): colonies invaded | antibacterial activity (Streptococcus pyogenes; S. pyogenes): + | antibacterial activity (Streptococcus pyogenes; [19]): + | killing of S. pyogenes (Streptococcus pyogenes): further killed | killing of multi-drug resistant Burkholderia cepacia [9]: killed | antibacterial activity ([9]; B. cepacia (ATCC 10856)): − | antibacterial activity [9, 21]: − | efficacy against Yesenia pestis (Kimo 6), comparison with antibiotics (Yesenia pestis (Kimo 6)): more effective than MM8 | antibacterial activity (Yesenia pestis (Kimo 6)): − | killing of Bacillus subtilis [10]: killed | antibacterial activity [8]: −
